The values that follow come from ChEMBL document CHEMBL2203037, “Synthesis and Anti-influenza A Virus Activity of 2,2-Dialkylamantadines and Related Compounds” (ACS Med Chem Lett, 2012).

By CC50 is commonly meant the concentration at which the toxic effect on the cells reaches its halfway point. The pEC50 is the EC50 on a negative log10 scale, so that one unit is a factor of ten.

pEC50: −log10 of the molar value. Calls of active or inactive are those of the source. The calls are words filed in the database; no cut-off is given here.

The test system of data set [1] is Vesicular stomatitis virus. The experiment in a line: Antiviral activity against Vesicular stomatitis virus by cell based assay. The class given is functional, organism-based.
The subject of data set [2] is Punta Toro virus. The experiment in a line: Antiviral activity against Punta Toro virus by cell based assay. Format: functional, organism-based.
Data set [3] relates to Vaccinia virus. The experiment in a line: Antiviral activity against Vaccinia virus by cell based assay. The class given is functional, organism-based. Conditions: Orthopoxvirus vaccinia.
The nature of data set [4]: Cytotoxicity against dog MDCK cells assessed as cell viability after 72 hrs by MTS assay. The class given is cell-based, Canis lupus familiaris. On the technique in general: Formazan colour is commonly taken as a measure of viable cells.
Data set [5] deals with Feline coronavirus. The experiment in a line: Antiviral activity against Feline coronavirus by cell based assay. The class given is functional, organism-based.
The test system of data set [6] is Simplexvirus. The experiment in a line: Antiviral activity against Herpes simplex virus by cell based assay. Format: functional, organism-based.
In data set [7] the test system is Respiratory syncytial virus. The experiment in a line: Antiviral activity against Respiratory syncytial virus by cell based assay. The class given is functional, organism-based.
The subject of data set [8] is H3N2 subtype. The experiment in a line: Antiviral activity against Influenza A virus (A/HK/7/87 (H3N2)) infected in MDCK cells assessed as virus-induced cytopathic effect measured 3 days post infection by microscopic analysis. Format: functional, organism-based. Conditions: A/Hong Kong/7/1987(H3N2), 72 h.
In data set [9] the test system is Human respirovirus 3. The experiment in a line: Antiviral activity against Parainfluenza-3 virus by cell based assay. Format: functional, organism-based.
The subject of data set [10] is Coxsackievirus B4. The experiment in a line: Antiviral activity against Coxsackievirus B4 by cell based assay. The class given is functional, organism-based.
Data set [11] deals with Mammalian orthoreovirus 1. The experiment in a line: Antiviral activity against Reovirus-1 by cell based assay. The class given is functional, organism-based.
Data set [12] is described as follows: Cytotoxicity against dog MDCK cells assessed as cell morphology alterations. Format: cell-based, Canis lupus familiaris.
For data set [13], the system named is H3N2 subtype. The experiment in a line: Antiviral activity against Influenza A virus (A/HK/7/87 (H3N2)) infected in MDCK cells assessed as virus-induced cytopathic effect by MTS assay. The class given is functional, organism-based, A/Hong Kong/7/1987(H3N2). Conditions: Influenza A virus, A/Hong Kong/7/1987(H3N2), MDCK.
Data set [14] deals with Sindbis virus. The experiment in a line: Antiviral activity against Sindbis virus by cell based assay. Format: functional, organism-based.

With `CCNC12CC3CC(CC(C3)C1(C)C)C2`, the outcome in data set [1], in [2], in data set [3], in [5], in data set [6] and in [7] was inactive. The outcome in [9], in [10], in data set [11] and in data set [14] was inactive. In addition, the CC50 at 72 h in data set [4] is 85 µM. The negative logarithm of the EC50 (pEC50) in data set [8] and in data set [13] was under 4.00 in each case. For the same compound, in [12], the MCC was determined as 200 µM.

Turning to `CC1(C)C2CC3CC(C2)CC1(NCc1ccccc1)C3`, the outcome in data set [1], in data set [2], in data set [3], in data set [5], in [6] and in data set [7] was inactive. In addition, the outcome in data set [9], in data set [10], in data set [11] and in data set [14] was inactive. For the same compound, the CC50 at 72 h in data set [4] worked out at 1.1 µM. The pEC50 in data set [8] and in data set [13] was under 4.00 in each case. In addition, the MCC in [12] worked out at 4 µM.

As to `CC(C)C1C2CC3CC(C2)CC1(N)C3` (stereo unspecified), the result in data set [1], in data set [2], in data set [3], in [5], in data set [6] and in [7] was inactive. Moreover, the result in [9], in data set [10], in [11] and in data set [14] was inactive. Also, in [4], the CC50 at 72 h is 8.6 µM. Besides, the negative logarithm of the EC50 (pEC50) in [8] and in data set [13] was under 4.00 throughout. For the same compound, the MCC in data set [12] was 5.3 µM.

As to `CN(C)C12CC3CC(CC(C3)C1(C)C)C2`, the outcome in data set [1], in data set [2], in data set [3], in data set [5], in [6] and in [7] was inactive. Moreover, the outcome in data set [9], in data set [10], in [11] and in data set [14] was inactive. Further, in data set [4], the CC50 at 72 h came out at 68 µM. Moreover, the negative logarithm of the EC50 (pEC50) in [8] and in data set [13] was under 4.00 each time. In addition, the MCC in [12] came out at 110 µM.

Regarding `CCCC1(CCC)C2CC3CC(C2)CC1(N)C3`, the result in [1], in data set [2], in [3], in data set [5], in data set [6] and in [7] was inactive. Moreover, the outcome in data set [9], in data set [10], in data set [11] and in data set [14] was inactive. Further, the 50% cytotoxic concentration (CC50) at 72 h in data set [4] stood at 2.9 µM. Further, the pEC50 in [8] and in [13] was under 4.00 each time. For the same compound, the MCC in data set [12] came out at 6 µM.

As to `CN(Cc1ccccc1)C12CC3CC(CC(C3)C1(C)C)C2`, the outcome in data set [1], in data set [2], in data set [3], in data set [5], in [6] and in [7] was inactive. The outcome in data set [9], in [10], in data set [11] and in data set [14] was inactive. In addition, the CC50 at 72 h in data set [4] is 0.7 µM. Also, the negative logarithm of the EC50 (pEC50) in data set [8] and in data set [13] was under 4.00 in each case. The MCC in data set [12] was found to be 4 µM.

On to `NC12CC3CC(CC(C3)C13CCCCC3)C2`, for which the result in data set [1], in [2], in data set [3], in [5], in [6] and in data set [7] was inactive. The result in [9], in [10], in [11] and in [14] was inactive. Further, the CC50 at 72 h in data set [4] came out at 4.7 µM. The pEC50 in data set [8] and in data set [13] was under 4.00 in each case. For the same compound, in data set [12], the MCC was 6 µM.

Consider `CC(C)C1C2CC3CC(C2)CC1(N(C)C)C3` (stereo unspecified), for which the outcome in data set [1], in [2], in [3], in data set [5], in data set [6] and in data set [7] was inactive. In addition, the outcome in [9], in data set [10], in data set [11] and in [14] was inactive. For the same compound, in data set [4], the half-maximal cytotoxic concentration (CC50) at 72 h is at least 100 µM. In addition, the pEC50 in [8] and in data set [13] was under 4.00 throughout. In data set [12], the MCC was over 100 µM.

Take `CC12CC3CC1(C)CC(N)(C2)C3(C)C`: the outcome in data set [1], in data set [2], in data set [3], in data set [5], in data set [6] and in data set [7] was inactive. The result in data set [9], in [10], in data set [11] and in data set [14] was inactive. For the same compound, the CC50 at 72 h in [4] is over 100 µM. Further, the negative-log EC50 (pEC50) in data set [8] and in [13] was under 4.00 throughout. In addition, the MCC in [12] was at least 100 µM.

Consider `CCCC1(CCC)C2CC3CC(C2)CC1(N(C)C)C3`, for which the outcome in data set [1], in [2], in [3], in data set [5], in data set [6] and in [7] was inactive. The result in data set [9], in data set [10], in [11] and in data set [14] was inactive. Moreover, the CC50 at 72 h in [4] is over 100 µM. For the same compound, the pEC50 in data set [8] and in data set [13] was under 4.00 throughout. For the same compound, in data set [12], the MCC was at least 100 µM.

As to `CC1(C)C2CC3CC(C2)CC1(N)C3`, the outcome in data set [1], in data set [2], in data set [3], in data set [5], in [6] and in data set [7] was inactive. The result in data set [9], in data set [10], in data set [11] and in [14] was inactive. For the same compound, the CC50 at 72 h in data set [4] is 77 µM. Moreover, the negative logarithm of the EC50 (pEC50) in data set [8] and in data set [13] was under 4.00 in each case. Besides, the MCC in data set [12] is 167 µM.

For `CN(C)C12CC3(C)CC(CC3(C)C1)C2(C)C`, the result in [1], in data set [2], in data set [3], in data set [5], in data set [6] and in [7] was inactive. The outcome in data set [9], in [10], in [11] and in data set [14] was inactive. In data set [4], the CC50 at 72 h was over 100 µM. The pEC50 in data set [8] and in data set [13] was under 4.00 in each case. The MCC in [12] is at least 100 µM.

Take `CC1(C)C2CC3CC(C2)CC1(N1CCCCC1)C3`: the result in data set [1], in data set [2], in data set [3], in data set [5], in [6] and in data set [7] was inactive. Moreover, the result in data set [9], in data set [10], in data set [11] and in data set [14] was inactive. Moreover, in data set [4], the half-maximal cytotoxic concentration (CC50) at 72 h is 0.8 µM. Moreover, the pEC50 in data set [8] and in data set [13] was under 4.00 throughout. Moreover, in data set [12], the MCC was 4 µM.

For the compound `CNC12CC3CC(CC(C3)C1(C)C)C2`, the outcome in data set [1], in data set [2], in [3], in data set [5], in data set [6] and in data set [7] was inactive. The outcome in data set [9], in data set [10], in [11] and in [14] was inactive. Further, the CC50 at 72 h in data set [4] amounted to 70 µM. Moreover, the pEC50 in [8] and in data set [13] was under 4.00 each time. Further, in [12], the MCC was found to be 110 µM.
